Data: patent US20080194482A1, “Selective Apac2 Receptor Peptide Agonists” (priority 2005, published 2008)
Square brackets hold non-standard residues; d marks the D form. Peptide text beside a SMILES is read from it. * marks the point of attachment. Orn = NCCC[C@H](N)C(=O)O; Hexanoyl = CCCCCC(=O)*; Aib = CC(C)(N)C(=O)O

How the values were obtained:
human VPAC2 [1] = target: T1, human VPAC2 (Homo sapiens, UniProt P41587); assay: Filter binding assay, 125I-labeled VIP tracer, VPAC2 membranes; conditions: read-out: Human VPAC2 Receptor Binding (IC50; nM)
T1 construct: expressed in transfected cells
T1 sequence (P41587 24-438): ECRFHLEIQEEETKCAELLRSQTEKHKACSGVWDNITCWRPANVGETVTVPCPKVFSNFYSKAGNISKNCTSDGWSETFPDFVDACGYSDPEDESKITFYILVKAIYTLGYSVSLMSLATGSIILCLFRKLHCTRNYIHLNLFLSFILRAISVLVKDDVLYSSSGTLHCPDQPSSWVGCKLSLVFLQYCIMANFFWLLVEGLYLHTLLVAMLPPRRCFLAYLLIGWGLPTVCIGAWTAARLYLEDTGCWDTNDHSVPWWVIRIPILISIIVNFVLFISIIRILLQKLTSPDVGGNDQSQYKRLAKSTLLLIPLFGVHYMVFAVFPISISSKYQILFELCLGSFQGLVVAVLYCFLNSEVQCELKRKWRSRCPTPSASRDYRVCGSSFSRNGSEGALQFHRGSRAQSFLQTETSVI

human VPAC1 = target: T2, human VPAC1 (Homo sapiens, UniProt P32241); assay: Filter binding assay, 125I-labeled VIP tracer, VPAC1 membranes; conditions: read-out: Human VPAC1 Receptor Binding (IC50; nM)
T2 construct: expressed in transfected cells
T2 sequence (P32241 31-457): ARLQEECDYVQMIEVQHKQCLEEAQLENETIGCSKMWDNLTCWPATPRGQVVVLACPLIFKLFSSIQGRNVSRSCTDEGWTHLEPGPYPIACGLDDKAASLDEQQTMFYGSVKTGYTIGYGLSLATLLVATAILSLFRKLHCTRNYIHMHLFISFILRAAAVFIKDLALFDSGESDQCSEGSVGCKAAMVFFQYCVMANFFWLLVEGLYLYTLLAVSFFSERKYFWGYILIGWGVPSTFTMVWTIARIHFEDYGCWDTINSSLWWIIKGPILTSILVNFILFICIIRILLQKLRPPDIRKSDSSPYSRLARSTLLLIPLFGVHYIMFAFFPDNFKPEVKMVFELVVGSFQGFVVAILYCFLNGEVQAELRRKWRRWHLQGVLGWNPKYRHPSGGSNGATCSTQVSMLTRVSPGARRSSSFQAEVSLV

[2] = Rat serum stability (activity remaining, CHO-VPAC2 DiscoveRx read-out); format: in vitro ADME
In short: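 Peptides preincubated overnight in rat serum at 37 °C without aprotinin versus 4 °C with aprotinin, then tested as 11-point 5× dilutions in duplicate on CHO-VPAC2 cells, 30 min at RT. cAMP measured by DiscoveRx kit against standards; EC50 derived for each aliquot.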

rat VPAC2 receptor = target: T3, rat VPAC2 receptor (Rattus norvegicus, UniProt P35000); assay: DiscoveRx cAMP assay, in vitro potency at rat VPAC2 receptor; format: cell-based; conditions: CHO-PO cells transiently transfected with rat VPAC2; cAMP generation; mean of two independent runs
T3 construct: expressed in transfected cells; host or cells: CHO-PO (transient, Lipofectamine)
T3 sequence (P35000 23-437): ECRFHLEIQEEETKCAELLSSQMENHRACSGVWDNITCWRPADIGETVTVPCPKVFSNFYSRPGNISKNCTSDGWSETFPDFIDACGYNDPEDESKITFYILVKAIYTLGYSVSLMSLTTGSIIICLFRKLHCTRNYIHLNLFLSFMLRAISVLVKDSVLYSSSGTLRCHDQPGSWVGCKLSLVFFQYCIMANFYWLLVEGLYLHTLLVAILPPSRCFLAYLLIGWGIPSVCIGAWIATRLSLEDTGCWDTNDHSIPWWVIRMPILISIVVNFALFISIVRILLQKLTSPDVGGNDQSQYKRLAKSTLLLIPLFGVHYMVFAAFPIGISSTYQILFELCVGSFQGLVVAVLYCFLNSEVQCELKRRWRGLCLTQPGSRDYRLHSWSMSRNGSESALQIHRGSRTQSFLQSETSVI
Procedure: DiscoveRx: CHO-PO cells are transiently transfected with rat VPAC1 or VPAC2 receptor DNA using commercially available transfection reagents (Lipofectamine from Invitrogen). The cells are seeded at a density of 10,000/well in a 96-well plate and are allowed to grow for 3 days in […] culture medium. At day 3, the assay is performed.
On the day of the experiment, the medium is removed. Also, the cells are washed twice. The cells are incubated in assay buffer plus IBMX for 15 minutes at room temperature. Afterwards, the stimuli are added and are dissolved in assay buffer. The stimuli are present for 30 minutes. Then, the assay buffer is gently removed. The cell lysis reagent of the DiscoveRx cAMP kit is added. Thereafter, the standard protocol for developing the cAMP signal as described by the manufacturer is used (DiscoveRx Inc., USA). EC50 values for cAMP generation are calculated from the raw signal or are based on absolute cAMP levels as determined by a standard curve performed on each plate.
Results for each agonist are the mean of two independent runs. Rat VPAC1 and VPAC2 results are only generated using the DiscoveRx assay.

human VPAC2 [3] = target: T1, human VPAC2; assay: Alpha screen cAMP assay, in vitro potency at human VPAC2 receptor; format: cell-based; conditions: cAMP generation; single result from two analyses in a single run, some values average of more than one experiment
Procedure: Alpha screen: Cells are washed in the culture flask once with PBS. Then, the cells are rinsed with enzyme free dissociation buffer. The dissociated cells are removed. The cells are then spun down and washed in stimulation buffer. For each data point, 50,000 cells suspended in stimulation buffer are used. To this buffer, Alpha screen acceptor beads are added along with the stimuli. This mixture is incubated for 60 minutes. Lysis buffer and Alpha screen donor beads are added and are incubated for 60 to 120 minutes. The Alpha screen signal (indicative of intracellular cAMP levels) is read in a suitable instrument (e.g. AlphaQuest from Perkin-Elmer). Steps including Alpha screen donor and acceptor beads are performed in reduced light. The EC50 for cAMP generation is calculated from the raw signal or is based on absolute cAMP levels as determined by a standard curve performed on each plate.
Results for each agonist are, at minimum, from two analyses performed in a single run. For some agonists, the results are the mean of more than one run. The tested peptide concentrations are: 10000, 1000, 100, 10, 3, 1, 0.1, 0.01, 0.003, 0.001, 0.0001 and 0.00001 nM.

human PAC1 = target: T4, human PAC1 (Homo sapiens, UniProt P41586); assay: Filter binding assay, 125I-labeled PACAP-27 tracer, PAC1 membranes; conditions: read-out: Human PAC1 Receptor Binding (IC50; nM)
T4 construct: expressed in transfected cells
T4 sequence (P41586 21-468): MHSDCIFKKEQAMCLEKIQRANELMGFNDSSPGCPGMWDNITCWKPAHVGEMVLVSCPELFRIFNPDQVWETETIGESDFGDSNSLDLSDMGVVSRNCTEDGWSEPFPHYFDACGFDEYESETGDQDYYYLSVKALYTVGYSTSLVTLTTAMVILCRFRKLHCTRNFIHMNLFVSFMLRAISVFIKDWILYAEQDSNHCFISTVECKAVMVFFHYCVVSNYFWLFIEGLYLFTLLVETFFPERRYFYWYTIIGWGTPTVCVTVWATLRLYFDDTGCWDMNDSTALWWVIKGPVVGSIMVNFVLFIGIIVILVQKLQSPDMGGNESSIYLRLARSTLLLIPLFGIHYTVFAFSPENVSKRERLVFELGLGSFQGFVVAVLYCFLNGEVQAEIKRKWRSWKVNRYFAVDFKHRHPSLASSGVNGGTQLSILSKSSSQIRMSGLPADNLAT

Row | Structure (SMILES) | IC50 (human VPAC2 [1]) | IC50 (human VPAC1) | Rat Serum Stability (estimated purity in % after overnight incub.) [2] | EC50 (rat VPAC2 receptor) | EC50 (human VPAC2 [3]) | IC50 (human PAC1)
1 | CCCCCC(=O)N[C@@H](Cc1c[nH]cn1)C(=O)N[C@@H](CO)C(=O)N[C@@H](CC(=O)O)C(=O)N[C@@H](C)C(=O)N[C@H](C(=O)N[C@@H](Cc1ccccc1)C(=O)N[C@H](C(=O)N[C@@H](CC(=O)O)C(=O)N[C@@H](CCC(N)=O)C(=O)N[C@@H](Cc1ccc(O)cc1)C(=O)N[C@H](C(=O)N[C@@H](CCCN)C(=O)N[C@@H](CC(C)C)C(=O)N[C@@H](CCCNC(=N)N)C(=O)NC(C)(C)C(=O)N[C@@H](CCC(N)=O)C(=O)N[C@H](C(=O)N[C@@H](C)C(=O)N[C@@H](C)C(=O)NC(C)(C)C(=O)N[C@@H](CCCN)C(=O)N[C@@H](Cc1ccc(O)cc1)C(=O)N[C@@H](CC(C)C)C(=O)N[C@@H](CCC(N)=O)C(=O)N[C@@H](CO)C(=O)N[C@H](C(=O)N[C@@H](CCCN)C(=O)N[C@@H](CCCN)C(=O)NCC(=O)NCC(=O)N1CCC[C@H]1C(=O)N[C@@H](CO)C(=O)N[C@@H](CO)C(=O)NCC(=O)N[C@@H](C)C(=O)N1CCC[C@H]1C(=O)N1CCC[C@H]1C(=O)N1CCC[C@H]1C(=O)N[C@@H](CO)C(=O)O)[C@@H](C)CC)C(C)C)[C@@H](C)O)[C@@H](C)O)C(C)C [Agonist P396] (Hexanoyl-HSDAVFTDQYT[Orn]LR[Aib]QVAA[Aib][Orn]YLQSI[Orn][Orn]GGPSSGAPPPS-OH; C-terminus assumed) | 0.26 nM | > 3000 nM | 93.07% | 0.05 nM | 0.11 nM | > 25000 nM
2 | CCCCCC(=O)N[C@@H](Cc1c[nH]cn1)C(=O)N[C@@H](CO)C(=O)N[C@@H](CC(=O)O)C(=O)N[C@@H](C)C(=O)N[C@H](C(=O)N[C@@H](Cc1ccccc1)C(=O)N[C@H](C(=O)N[C@@H](CC(=O)O)C(=O)N[C@@H](CC(N)=O)C(=O)N[C@@H](Cc1ccc(O)cc1)C(=O)N[C@H](C(=O)N[C@@H](CCCN)C(=O)N[C@@H](CC(C)C)C(=O)N[C@@H](CCCNC(=N)N)C(=O)NC(C)(C)C(=O)N[C@@H](CO)C(=O)N[C@H](C(=O)N[C@@H](C)C(=O)N[C@@H](C)C(=O)NC(C)(C)C(=O)N[C@@H](CCCCN)C(=O)N[C@@H](Cc1ccc(O)cc1)C(=O)N[C@@H](CC(C)C)C(=O)N[C@@H](CCC(N)=O)C(=O)N[C@@H](CO)C(=O)N[C@H](C(=O)N[C@@H](CCCN)C(=O)N[C@@H](CC(N)=O)C(=O)N[C@@H](CCCN)C(=O)NCC(=O)NCC(=O)N1CCC[C@H]1C(=O)N[C@@H](CO)C(=O)N[C@@H](CO)C(=O)NCC(=O)N[C@@H](C)C(=O)N1CCC[C@H]1C(=O)N1CCC[C@H]1C(=O)N1CCC[C@H]1C(=O)N[C@@H](CO)C(=O)O)[C@@H](C)CC)C(C)C)[C@@H](C)O)[C@@H](C)O)C(C)C [Agonist P390] (Hexanoyl-HSDAVFTDNYT[Orn]LR[Aib]SVAA[Aib]KYLQSI[Orn]N[Orn]GGPSSGAPPPS-OH; C-terminus assumed) | 0.26 nM |  |  | 0.09 nM | 0.12 nM | > 25000 nM
3 | CCCCCC(=O)N[C@@H](Cc1c[nH]cn1)C(=O)N[C@@H](CO)C(=O)N[C@@H](CC(=O)O)C(=O)N[C@@H](C)C(=O)N[C@H](C(=O)N[C@@H](Cc1ccccc1)C(=O)N[C@H](C(=O)N[C@@H](CCC(=O)O)C(=O)N[C@@H](CCC(N)=O)C(=O)N[C@@H](Cc1ccc(OC)cc1)C(=O)N[C@H](C(=O)N[C@@H](CCCN)C(=O)N[C@@H](CC(C)C)C(=O)N[C@@H](CCCNC(=N)N)C(=O)NC(C)(C)C(=O)N[C@@H](CCC(N)=O)C(=O)N[C@@H](CC(C)C)C(=O)N[C@@H](C)C(=O)N[C@@H](C)C(=O)NC(C)(C)C(=O)N[C@@H](CCCN)C(=O)N[C@@H](Cc1ccc(O)cc1)C(=O)N[C@@H](CC(C)C)C(=O)N[C@@H](CCC(N)=O)C(=O)N[C@@H](CO)C(=O)N[C@H](C(=O)N[C@@H](CCCN)C(=O)N[C@@H](CCCN)C(=O)NCC(=O)NCC(=O)N1CCC[C@H]1C(=O)N[C@@H](CO)C(=O)N[C@@H](CO)C(=O)NCC(=O)N[C@@H](C)C(=O)N1CCC[C@H]1C(=O)N1CCC[C@H]1C(=O)N1CCC[C@H]1C(=O)N[C@@H](CO)C(N)=O)[C@@H](C)CC)[C@@H](C)O)[C@@H](C)O)C(C)C [Agonist P487] (Hexanoyl-HSDAVFTEQY(Me)T[Orn]LR[Aib]QLAA[Aib][Orn]YLQSI[Orn][Orn]GGPSSGAPPPS-NH2) | 0.64 nM | > 1000 nM | 76.98% | 0.03 nM | 0.24 nM | 
4 | CCCCCC(=O)N[C@@H](Cc1c[nH]cn1)C(=O)N[C@@H](CO)C(=O)N[C@@H](CC(=O)O)C(=O)N[C@@H](C)C(=O)N[C@H](C(=O)N[C@@H](Cc1ccccc1)C(=O)N[C@H](C(=O)N[C@@H](CC(=O)O)C(=O)N[C@@H](CC(N)=O)C(=O)N[C@@H](Cc1ccc(O)cc1)C(=O)N[C@H](C(=O)N[C@@H](CC(C)C)C(=O)N[C@@H](CC(C)C)C(=O)N[C@@H](CCCNC(=N)N)C(=O)NC(C)(C)C(=O)N[C@@H](CCC(N)=O)C(=O)N[C@H](C(=O)N[C@@H](C)C(=O)N[C@@H](C)C(=O)NC(C)(C)C(=O)N[C@@H](CCCCN)C(=O)N[C@@H](Cc1ccc(O)cc1)C(=O)N[C@@H](CC(C)C)C(=O)N[C@@H](CCC(N)=O)C(=O)N[C@@H](CO)C(=O)N[C@H](C(=O)N[C@@H](CCCN)C(=O)N[C@@H](CC(N)=O)C(=O)N[C@@H](CCCN)C(=O)NCC(=O)NCC(=O)N1CCC[C@H]1C(=O)N[C@@H](CO)C(=O)N[C@@H](CO)C(=O)NCC(=O)N[C@@H](C)C(=O)N1CCC[C@H]1C(=O)N1CCC[C@H]1C(=O)N1CCC[C@H]1C(=O)N[C@@H](CO)C(=O)O)[C@@H](C)CC)C(C)C)[C@@H](C)O)[C@@H](C)O)C(C)C [Agonist P367] (Hexanoyl-HSDAVFTDNYTLLR[Aib]QVAA[Aib]KYLQSI[Orn]N[Orn]GGPSSGAPPPS-OH; C-terminus assumed) | > 100 nM | > 3000 nM | 55.82% |  |  | > 25000 nM
